From PubChem BioAssay AID330 (DTP/NCI, 2004)
“And” between values parts separate entries of the source, which are not always exact repeats. Equal values may be shown once. Toxic doses and inconclusive results are not listed. Rule for the calls: active = survival T/C of 150% or more; inactive = T/C below 125% in these data.

System: P388 leukemia ip, CD2F1 mice, survival T/C
Test: NCI In Vivo Anticancer Drug Screen. Data for tumor model P388 Leukemia (intraperitoneal) in CD2F1 (CDF1) mice
Conditions: endpoint: median survival time, higher = longer survival
How it was run: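 Mice carrying the transplanted tumor received test compound or vehicle. Survival was recorded in each group, and the value is the treated-group measurement divided by that of the vehicle-treated control group.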

[1] = dose: 50.0 mg/kg/injection, schedule: Q01DX005 (ip), vehicle: saline with Tween-80
[2] = dose: 12.5 mg/kg/injection, schedule: Q01DX005 (ip), vehicle: saline
[3] = dose: 25.0 mg/kg/injection, schedule: Q01DX005 (ip), vehicle: saline
[4] = dose: 50.0 mg/kg/injection, schedule: Q01DX005 (ip), vehicle: saline
[5] = dose: 100.0 mg/kg/injection, schedule: Q01DX005 (ip), vehicle: saline
[6] = dose: 25.0 mg/kg/injection, schedule: Q01DX009 (ip), vehicle: saline with Tween-80
[7] = dose: 50.0 mg/kg/injection, schedule: Q01DX009 (ip), vehicle: saline with Tween-80
[8] = dose: 25.0 mg/kg/injection, schedule: Q01DX009 (ip), vehicle: saline
[9] = dose: 50.0 mg/kg/injection, schedule: Q01DX009 (ip), vehicle: saline

Measured: T/C

C=C1ON(C)C(c2ccccc2)C1S(=O)(=O)c1ccccc1 (stereo not drawn)
inactive: dose: 60.0 mg/kg/injection, schedule: Q01DX005 (ip), vehicle: Klucel (hydroxypropylcellulose) (HPC) 110 % of control | dose: 120.0 mg/kg/injection, schedule: Q01DX005 (ip), vehicle: Klucel (hydroxypropylcellulose) (HPC) 105 % of control | dose: 240.0 mg/kg/injection, schedule: Q01DX005 (ip), vehicle: Klucel (hydroxypropylcellulose) (HPC) 98 % of control

CC[CH2][Pb]([CH2]CC)([CH2]CC)[O]C(=O)C(F)(F)F
inactive: dose: 3.13 mg/kg/injection, schedule: Q01DX009 (ip), vehicle: saline 117 % of control

c1ccc2c(c1)ccc1cc3cccc[n+]3cc12
inactive: dose: 0.5 mg/kg/injection, schedule: Q01DX009 (ip), vehicle: saline 92 % of control | dose: 1.0 mg/kg/injection, schedule: Q01DX009 (ip), vehicle: saline 103 % of control | dose: 2.0 mg/kg/injection, schedule: Q01DX009 (ip), vehicle: saline 92 % of control

O=C(O)c1ccc(-c2nn[nH]n2)cc1
inactive: dose: 6.25 mg/kg/injection, schedule: Q01DX009 (ip), vehicle: Klucel (hydroxypropylcellulose) (HPC) 107 % of control | dose: 12.5 mg/kg/injection, schedule: Q01DX009 (ip), vehicle: Klucel (hydroxypropylcellulose) (HPC) 103 % of control | dose: 25.0 mg/kg/injection, schedule: Q01DX009 (ip), vehicle: Klucel (hydroxypropylcellulose) (HPC) 110 % of control | dose: 100.0 mg/kg/injection, schedule: Q01DX009 (ip), vehicle: Klucel (hydroxypropylcellulose) (HPC) 92 % of control | dose: 200.0 mg/kg/injection, schedule: Q01DX009 (ip), vehicle: Klucel (hydroxypropylcellulose) (HPC) 89 % of control

COC(=O)Nc1nc2cc(OC)c(OC)cc2c(=O)[nH]1
inactive: dose: 25.0 mg/kg/injection, schedule: Q01DX005 (ip), vehicle: saline with Tween-80 111 % of control | [1] 107 % of control

COc1cccc2c1C(=O)c1c(O)c3c(c(O)c1C2=O)CC(O)(C(C)=O)CC3OC1CC(OC(=O)c2ccc([N+](=O)[O-])cc2)C(OC(=O)c2ccc([N+](=O)[O-])cc2)C(C)O1 (stereo not drawn)
inactive: dose: 3.13 mg/kg/injection, schedule: Q04DX003 (ip), vehicle: distilled water + Tween-80 100 % of control | dose: 3.13 mg/kg/injection, schedule: Q04DX003 (ip), vehicle: saline with Tween-80 100 % of control and 101 % of control | dose: 6.25 mg/kg/injection, schedule: Q04DX003 (ip), vehicle: distilled water + Tween-80 108 % of control | dose: 6.25 mg/kg/injection, schedule: Q04DX003 (ip), vehicle: saline with Tween-80 104 % of control and 100 % of control | dose: 12.5 mg/kg/injection, schedule: Q04DX003 (ip), vehicle: distilled water + Tween-80 101 % of control | dose: 12.5 mg/kg/injection, schedule: Q04DX003 (ip), vehicle: saline with Tween-80 101 % of control and 95 % of control | dose: 25.0 mg/kg/injection, schedule: Q04DX003 (ip), vehicle: distilled water + Tween-80 95 % of control | dose: 25.0 mg/kg/injection, schedule: Q04DX003 (ip), vehicle: saline with Tween-80 101 % of control and 100 % of control | dose: 50.0 mg/kg/injection, schedule: Q04DX003 (ip), vehicle: saline with Tween-80 95 % of control and 100 % of control
active: dose: 50.0 mg/kg/injection, schedule: Q04DX003 (ip), vehicle: distilled water + Tween-80 156 % of control

CCC1CCC2CCCCN2CO1 (stereo not drawn)
inactive: [2] 101 % of control | [3] 118 % of control | [4] 114 % of control and 123 % of control | [5] 114 % of control and 121 % of control

O=C(O)C(/N=N\c1nn[nH]n1)/N=N\c1ncn[nH]1 (stereo not drawn)
inactive: dose: 100.0 mg/kg/injection, schedule: Q04DX003 (ip), vehicle: Klucel (hydroxypropylcellulose) (HPC) 102 % of control | dose: 200.0 mg/kg/injection, schedule: Q04DX003 (ip), vehicle: Klucel (hydroxypropylcellulose) (HPC) 108 % of control | dose: 400.0 mg/kg/injection, schedule: Q04DX003 (ip), vehicle: Klucel (hydroxypropylcellulose) (HPC) 101 % of control

Cc1nc(SCC(N)=O)nc2sc(SCC(N)=O)nc12
inactive: dose: 100.0 mg/kg/injection, schedule: Q04DX002 (ip), vehicle: suspension in saline 96 % of control | dose: 200.0 mg/kg/injection, schedule: Q04DX002 (ip), vehicle: suspension in saline 99 % of control | dose: 400.0 mg/kg/injection, schedule: Q04DX002 (ip), vehicle: suspension in saline 98 % of control

CC1(C)OC(c2ccccc2)=Nc2ccccc21
inactive: dose: 100.0 mg/kg/injection, schedule: Q04DX002 (ip), vehicle: saline 104 % of control | dose: 200.0 mg/kg/injection, schedule: Q04DX002 (ip), vehicle: saline 103 % of control | dose: 400.0 mg/kg/injection, schedule: Q04DX002 (ip), vehicle: saline 99 % of control

CCOC(=O)C1Cc2c([nH]c(=O)[nH]c2=O)OC1c1cccc(Cl)c1 (stereo not drawn)
inactive: dose: 3.12 mg/kg/injection, schedule: Q01DX009 (ip), vehicle: saline with Tween-80 94 % of control | dose: 6.25 mg/kg/injection, schedule: Q01DX009 (ip), vehicle: saline with Tween-80 93 % of control | dose: 12.5 mg/kg/injection, schedule: Q01DX009 (ip), vehicle: saline with Tween-80 96 % of control | [6] 100 % of control

C[C@H](N)C(=O)N[C@@H]1[C@H]2C(=C(O)C[C@@H](O)[C@@H]2O)C(=O)O[C@@H]1C
active: dose: 600.0 mg/kg/injection, schedule: Q01DX005 (ip), vehicle: suspension in saline 153 % of control
inactive: dose: 150.0 mg/kg/injection, schedule: Q01DX005 (ip), vehicle: saline 115 % of control

N#Cc1cccc(C(N)=O)c1C(N)=O
inactive: [1] 104 % of control | dose: 100.0 mg/kg/injection, schedule: Q01DX005 (ip), vehicle: saline with Tween-80 98 % of control | dose: 200.0 mg/kg/injection, schedule: Q01DX005 (ip), vehicle: saline with Tween-80 95 % of control

CCCCCNCC(=O)O
inactive: [4] 91 % of control | [5] 96 % of control

COc1ccc(/C(=C(\c2ccccc2)[N+](=O)[O-])c2ccc(OCCN3CCCC3)cc2)cc1
inactive: [6] 104 % of control | [7] 100 % of control

CN(C)CC(CN(C)C)C(=O)c1ccc(Cl)c(Cl)c1
inactive: [2] 108 % of control | [3] 105 % of control | [4] 100 % of control and 104 % of control

C[P+](CCOC(=O)NC(Cc1ccccc1)C(=O)O)(c1ccccc1)c1ccccc1 (stereo not drawn)
inactive: [7] 94 % of control | dose: 100.0 mg/kg/injection, schedule: Q01DX009 (ip), vehicle: saline with Tween-80 103 % of control

Cc1cc(OC(=O)Nc2ccc(C)c([N+](=O)[O-])c2)c(Br)cc1Cl
inactive: dose: 12.5 mg/kg/injection, schedule: Q01DX009 (ip), vehicle: saline 100 % of control | [8] 93 % of control | dose: 50.0 mg/kg/injection, schedule: Q01DX009 (ip), vehicle: saline + alcohol 96 % of control | [9] 100 % of control | dose: 100.0 mg/kg/injection, schedule: Q01DX009 (ip), vehicle: saline + alcohol 99 % of control

CC(=O)CS(C)(=O)=O
inactive: [8] 103 % of control | [9] 102 % of control | dose: 100.0 mg/kg/injection, schedule: Q01DX009 (ip), vehicle: saline 101 % of control | dose: 200.0 mg/kg/injection, schedule: Q01DX009 (ip), vehicle: saline 98 % of control

COc1ccc(OC)c(NC(=O)C2=C(C)NC(C)=C(C(=O)Nc3cc(OC)ccc3OC)C2c2cccc([N+](=O)[O-])c2)c1
inactive: dose: 7.5 mg/kg/injection, schedule: Q01DX005 (ip), vehicle: Klucel (hydroxypropylcellulose) (HPC) 101 % of control | dose: 15.0 mg/kg/injection, schedule: Q01DX005 (ip), vehicle: Klucel (hydroxypropylcellulose) (HPC) 94 % of control | dose: 30.0 mg/kg/injection, schedule: Q01DX005 (ip), vehicle: Klucel (hydroxypropylcellulose) (HPC) 92 % of control

O=C1c2ccc3ccccc3c2CCC1C1([n+]2ccccc2)CCc2c(ccc3ccccc23)C1=O (stereo not drawn)
inactive: dose: 6.25 mg/kg/injection, schedule: Q01DX005 (ip), vehicle: Klucel (hydroxypropylcellulose) (HPC) 99 % of control and 109 % of control | dose: 12.5 mg/kg/injection, schedule: Q01DX005 (ip), vehicle: Klucel (hydroxypropylcellulose) (HPC) 100 % of control and 103 % of control and 98 % of control | dose: 25.0 mg/kg/injection, schedule: Q01DX005 (ip), vehicle: Klucel (hydroxypropylcellulose) (HPC) 99 % of control and 100 % of control and 112 % of control

CC(C)C12CCC(=O)C=C1CCCC2O (stereo not drawn)
inactive: dose: 100.0 mg/kg/injection, schedule: Q01DX009 (ip), vehicle: saline sonified 90 % of control | dose: 200.0 mg/kg/injection, schedule: Q01DX009 (ip), vehicle: saline sonified 100 % of control | dose: 400.0 mg/kg/injection, schedule: Q01DX009 (ip), vehicle: saline sonified 109 % of control
